Data taken from US8822502B2, “Insecticidal compounds” (Syngenta Crop Protection LLC, priority 2008, dated 2014).

Columns and labels:
Format in all cases: in vivo
Spodoptera littoralis = Spodoptera littoralis cotton leaf disc spray test; conditions: foliar, 72 h, application rate 200 ppm, sprayed cotton leaf discs, L1 larvae, 3 days after treatment, mortality, feeding behavior, growth regulation
Excerpt: Spodoptera Littoralis (Egyptian Cotton Leafworm):
Cotton leaf discs were placed on agar in a 24-well microtiter plate and sprayed with test solutions at an application rate of 200 ppm. After drying, the leaf discs were infested with 5 L1 larvae. The samples were checked for mortality, feeding behavior, and growth regulation 3 days after treatment (DAT).

Heliothis virescens = Heliothis virescens egg / artificial diet test; conditions: 96 h, application rate 200 ppm (concentration in well 18 ppm), eggs 0-24 h old on artificial diet, 4 days, egg mortality, larval mortality, growth regulation
Experimental: Heliothis Virescens (Tobacco Budworm):
Eggs (0-24 h old) were placed in 24-well microtiter plate on artificial diet and treated with test solutions at an application rate of 200 ppm (concentration in well 18 ppm) by pipetting. After an incubation period of 4 days, samples were checked for egg mortality, larval mortality, and growth regulation.

Plutella xylostella = Plutella xylostella artificial diet test; conditions: 144 h, application rate 200 ppm (concentration in well 18 ppm), L2 larvae, 6 days, larval mortality, growth regulation
Experimental: Plutella Xylostella (Diamond Back Moth):
24-well microtiter plate (MTP) with artificial diet was treated with test solutions at an application rate of 200 ppm (concentration in well 18 ppm) by pipetting. After drying, the MTP's were infested with L2 larvae (7-12 per well). After an incubation period of 6 days, samples were checked for larval mortality and growth regulation.

Diabrotica balteata = Diabrotica balteata artificial diet test; conditions: 120 h, application rate 200 ppm (concentration in well 18 ppm), L2 larvae, 5 days, larval mortality, growth regulation
Experimental: Diabrotica Balteata (Corn Root Worm):
A 24-well microtiter plate (MTP) with artificial diet was treated with test solutions at an application rate of 200 ppm (concentration in well 18 ppm) by pipetting. After drying, the MTP's were infested with L2 larvae (6-10 per well). After an incubation period of 5 days, samples were checked for larval mortality and growth regulation.

Thrips tabaci = Thrips tabaci sunflower leaf disc spray test; conditions: foliar, 168 h, application rate 200 ppm, sprayed sunflower leaf discs, population of mixed ages, 7 days, mortality
Experimental: Thrips Tabaci (Onion Thrips):
Sunflower leaf discs were placed on agar in a 24-well microtiter plate and sprayed with test solutions at an application rate of 200 ppm. […] After an incubation period of 7 days, samples were checked for mortality.

Tetranychus urticae = Tetranychus urticae bean leaf disc spray test; conditions: foliar, 192 h, application rate 200 ppm, sprayed bean leaf discs, mite populations of mixed ages, 8 days, egg, larval and adult mortality
Excerpt: Tetranychus Urticae (Two-Spotted Spider Mite):
Bean leaf discs on agar in 24-well microtiter plates were sprayed with test solutions at an application rate of 200 ppm. After drying, the leaf discs are infested with mite populations of mixed ages. 8 days later, discs are checked for egg mortality, larval mortality, and adult mortality.

Measured: pest or weed control at 200 ppm

O=C(NC1CSC1)c1ccc(C2=NOC(c3cc(Cl)cc(Cl)c3)(C(F)(F)F)C2Br)c2ccccc12 (stereo not drawn) [F21]
≥ 80%: Spodoptera littoralis | Heliothis virescens | Plutella xylostella | Diabrotica balteata | Thrips tabaci | Tetranychus urticae

Cc1cc(C2=NOC(c3cc(Cl)cc(Cl)c3)(C(F)(F)F)C2Cl)ccc1C(=O)NCc1ccccc1 (stereo not drawn) [B8]
≥ 80%: Spodoptera littoralis | Heliothis virescens | Plutella xylostella | Diabrotica balteata | Thrips tabaci | Tetranychus urticae

Cc1cc(C2=NOC(c3cc(Cl)cc(Cl)c3)(C(F)(F)F)C2Br)ccc1C(=O)Nc1cccc(F)c1 (stereo not drawn) [A15]
≥ 80%: Spodoptera littoralis | Heliothis virescens | Plutella xylostella | Diabrotica balteata | Thrips tabaci | Tetranychus urticae
